# In patent publication US20190031762A1, “POSTERIOR OCULAR FIBROSIS INHIBITION BY ANTAGONIZING PLACENTAL GROWTH FACTOR” (THROMBOGENICS NV, priority 2016, published 2019):
# How the values were obtained:
# mouse CNV model [1] = assay: Leukocyte infiltration (CD45 staining) in laser-induced CNV mouse model; format: in vivo; details: day 5; equimolar comparison FIG. 1B: 5D11D4 3.1 μg, DC101 3.1 μg, aflibercept 2.4 μg, TAAC 4 μg; vs IgG
# Description: (§1) Mice (C57BL/6J, male, 8-10 weeks old) were anesthetized by intraperitoneal injection (135 μL) of a mixture of ketamine hydrochloride (Anesketin; […]) and medetomidine (Domitor; 1 mg/mL) and their pupils dilated with one eye drop (50 μL) Tropicamide (Tropicol™; 5 mg/mL; Thea, Research Papers Clermont-Ferrand, France). Three laser burns were placed in one eye with a green laser at the 9, 12, 3 o'clock positions around the optic disk using a slit lamp delivery system with a hand-held cover slide as a contact lens moisturized with Genteal Gel™ (Novartis, Vilvoorde, Belgium). Each spot was placed with a spot size of 100 μm, laser duration of a 50 milliseconds and a power of 320 mW. […] Finally, 300 μL atipamezole (Antisedan; 5 mg/mL) was injected intraperitoneally to reverse the effect of medetomidine and to reduce sedation time.
# (§2) At different time points after lasering, the compounds were administered intravitreally (IVT). The animal was anesthetized with a mixture of ketamine hydrochloride/medetomidine and the eye was treated with a drop of 0.4% oxybuprocaine (Unicaine; Thea Pharma). Intravitreal injections (1 μL) to one eye according to Tables 1 to 3 were performed by using an analytic science syringe (SGE Analytic Science) and glass capillaries with a diameter of 50-70 μm at the end, controlled by the UMP3I Microsyringe Injector and Micro4 Controller (all from World Precision Instruments Inc., Hertfordshire, UK). Finally, atipamezole (Antisedan) was injected intraperitoneally to reverse the effect of medetomidine and to reduce sedation time.
# (§3) To analyze the in vivo efficacy of the different compounds, the retina was removed from the dissected posterior segments. These posterior eye cups, which included retinal pigment epithelium (RPE), the choroid and the sclera were stored in phosphate buffered saline (PBS).
# On day 5 after lasering, a rat anti-mouse CD45 and F4/80 antibody ( 1/100; Pharmingen, Erembodegem, Belgium) was used overnight to stain all leukocytes and macrophages, respectively, diluted in Tris-buffered saline (TBS)-Triton 0.3% (v/v). The following day, the tissues were incubated for 2 hours with rabbit anti-rat biotin labeled antibody ( 1/300; DakoCytomation A/S, Copenhagen, Denmark), diluted in TBS-Triton 0.3%. Antibody binding was visualized by fluorescent staining using streptavidin-Alexa-568 ( 1/200; Molecular Probes, Life Technologies, Eugene, Oreg., USA) in TBS-Triton 0.3% for 2 hours. The flatmounts of the posterior eye cups were mounted with Prolong Gold with 4′,6-diamidino-2-phenylindole (DAPI, Molecular Probes). Images were obtained using a microscope with a digital camera
# (Axiocam MrC5; Carl Zeiss, Oberkochen, Germany) at a magnification of 20×. Morphometric analyses were performed using commercial software (Axiovision; Zeiss, Oberkochen, Germany). The density of inflammation was determined by calculating the CD45-positive area as a proportion of the total lesion.
# mouse CNV model [2] = assay: Posterior ocular collagen deposition (Col1a staining) in laser-induced CNV mouse model; format: in vivo; details: day 30
# Description: as §1, §2, §3
# To stain for the presence of collagen type 1 (Colla) protein in the laser spots at day 30 after laser, a rabbit anti-collagen antibody (Abcam, 1/270) was used overnight, diluted in Tris-buffered saline (TBS)-Triton 0.5% (v/v) at 4° C. The following day, the tissues were incubated for 2 hours with goat anti rabbit IgG Alexa Fluor 555 (Life Technologies; A-21428), diluted 1/100 in TBS-Triton 0.3% (v/v) at 4° C. The flat mounts of the posterior eye cups were mounted with Prolong Gold with 4′,6-diamidino-2-phenylindole (DAPI, Molecular Probes). Images were obtained using a microscope with a digital camera (Axiocam MrC5; Carl Zeiss, Oberkochen, Germany) at a magnification factor of 20. Morphometric analyses were performed using commercial software (Axiovision; Zeiss, Oberkochen, Germany). The density of collagen deposition was determined by calculating the Colla-positive area as a proportion of the total lesion.
# The mouse CNV model as described in Example 2.1 was used. At different time points after lasering, compounds were administered intraperitoneally (IP), or intravitreally (IVT), as indicated in Table 3.
smiles,measurement,setting,value
"CC1(C)O[C@@H]2C[C@H]3[C@@H]4CCC5=CC(=O)C=C[C@]5(C)[C@@]4(F)[C@@H](O)C[C@]3(C)[C@]2(C(=O)CO)O1 [TAAC, triamcinolone acetonide, reference compound]","effect on leukocyte infiltration (CD45), in words",mouse CNV model [1],no effect
same,"effect on collagen deposition, in words","mouse CNV model [2]; equimolar comparison FIG. 2B: 5D11D4 3.1 μg, DC101 3.1 μg, aflibercept 2.4 μg, TAAC 4 μg, vs IgG",no effect
same,reduction in collagen deposition (Col1a),"mouse CNV model [2]; repeat experiment (FIG. 4), IVT D0, 4, 10 and 20, 40 μg/eye, compared to PBS",49%
